In patent US5550139A, “Serine protease inhibitors” (The Wichita State University, priority 1994, dated 1996):
Several values for one entry are separate records, joined by “and”; a condition that tells them apart may be missing. Identical values can stand only once. Values belong to the compound of their own block, whether it stands above or below them.

Assays:
[1] = target: T1, Proteinase-3 (Homo sapiens, UniProt P24158); assay: Proteinase-3 inhibition; format: biochemical; parameters: % Proteinase-3 Inhibition: concentration or dose not given beside the values; conditions: Table 7
T1 sequence (P24158 28-248 limits assumed): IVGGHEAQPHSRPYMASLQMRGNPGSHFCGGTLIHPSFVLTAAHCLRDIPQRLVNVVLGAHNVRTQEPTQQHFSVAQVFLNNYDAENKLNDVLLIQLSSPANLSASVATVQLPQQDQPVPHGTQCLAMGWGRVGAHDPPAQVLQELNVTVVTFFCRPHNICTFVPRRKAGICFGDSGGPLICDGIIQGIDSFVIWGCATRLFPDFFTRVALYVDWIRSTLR
Text: (§1) An in vitro assay can be used to screen compounds of the invention for the ability to reduce or inhibit serine proteinase activity. The human leukocyte elastase (HLE), cathepsin G (Cath G), and proteinase-3 assays have each been described (Groutas et al., J. Med. Chem. 32:1607-1611, 1989; Groutas et al., Arch. Biochem. Biophys. 294:144-146, 1992; Kao et al., J. Clin. Invest. 82:1963-1973, 1988, each incorporated by reference herein). The pseudo first-order inactivation rate constants (kobs) were obtained from plots of ln(vt /vo) vs t, and expressed in terms of the apparent second-order inactivation rate constant, kobs /[I] M^-1 s^-1 (Tables 1-7). Tables 1-7 disclose the activity of preferred compounds of the invention as inhibitors of HLE and Cath G. Table 7 discloses the activity of Compounds 4A (C) and 3E (D) as inhibitors of Proteinase-3 activity. Compounds (A) and (B) have been disclosed previously (Groutas et al., Bioorganic and Med. Chem. 1(4):273-277, 1993; Groutas et al., J. Med. Chem. 36:3178, 1993).

[2] = test system: rat; assay: Overt toxicity in injected rats; format: in vivo
Experimental: (§2) Inhibitor A or B were each injected twice daily into the tail vein of a rat (8 mg/kg) over a period of three days. Inflammation was not induced in these rats. […] WBC=white blood cells; PMN=polymorphonuclear leukocytes; The elastase assay has been disclosed above.
(§3) Each compound (A-D) was individually injected into the tail vein of a rat in a single dose (8 mg/kg). After injection, peritonitis was induced in the rat by an IP (intraperitoneal) injection of 1 ml of a 0.1% soluble starch solution. After 4 hours, the peritoneal cavity was lavaged with saline in order to determine the number and type of cells responding to peritonitis. Cell numbers were determined by a Coulter counter and cell type (e.g. lymphocytes, neutrophils, macrophages and monocytes) by standard Cytospin and Giemsa staining. Cell number and type was evaluated after IP injection of saline (negative control, no inflammation), starch (positive control, inflammation) or starch with IV injection of an inhibitor (experimental, inflammation). Inhibitors were dissolved in DMSO prior to administration.

[3] = test system: peripheral blood neutrophils and lymphocytes; assay: Peripheral blood cell distribution after administration to rats without inflammation; format: in vivo; conditions: rat, 8 mg/kg twice daily for three days
Experimental: Compound A or Compound B were each administered twice daily for three days at a dose of 8 mg/kg. Inflammation was not induced in these rats. […] However, substitution of the aspirin moiety with a fluorine atom, as found in Compound B, prevents an increase in neutrophil cell number.

[4] = test system: neutrophil diapedesis (peritonitis); assay: Inhibition of neutrophil diapedesis after experimentally induced (starch) peritonitis; format: in vivo, rat; conditions: 8 mg/kg i.v. single dose; for Total Number of Cells Lavaged at 4 Hours, Lymphocytes / Total Number of Cells Lavaged at 4 Hours, Macrophages Monocytes / Total Number of Cells Lavaged at 4 Hours, Neutrophils / Total Number of Cells Lavaged at 4 Hours, Total Cells / Abdominal Lavage Cell Distribution, Lymphocytes / Abdominal Lavage Cell Distribution, Macrophages Monocytes / Abdominal Lavage Cell Distribution, Neutrophils: starch; for Abdominal Lavage Cell Distribution, Lymphocytes / Abdominal Lavage Cell Distribution, Macrophages Monocytes / Abdominal Lavage Cell Distribution, Neutrophils: 4 hours
Experimental: as §3

[5] = test system: neutrophil elastase; assay: Elastase activity and cell number in peripheral blood neutrophils after administration to rats; format: in vivo; conditions: rat, 8 mg/kg twice daily i.v. for three days
Experimental: as §2

[6] = target: T2, cathepsin G (Cath G) (Homo sapiens, UniProt P08311); assay: Inactivation of human leukocyte cathepsin G (kobs/[I]); format: biochemical; conditions: for kinact/KI: pH 7.5
T2 construct: purchased Athens Research and Technology, Athens, Ga
T2 sequence (P08311 21-244 limits assumed): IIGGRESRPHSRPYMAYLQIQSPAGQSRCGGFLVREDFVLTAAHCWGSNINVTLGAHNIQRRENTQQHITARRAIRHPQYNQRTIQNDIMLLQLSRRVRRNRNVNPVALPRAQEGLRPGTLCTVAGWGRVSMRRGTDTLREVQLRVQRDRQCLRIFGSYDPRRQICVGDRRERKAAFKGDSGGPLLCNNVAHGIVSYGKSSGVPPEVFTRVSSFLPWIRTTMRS
Experimental: Human leukocyte cathepsin G (1.33 uM) is incubated with compound 8 (133 uM) (a) or compound 10 (13.3 uM) (b) in 0.1M HEPES buffer, pH 7.5, and 10% DMSO. Aliquots were withdrawn at different time intervals and assayed for enzymatic activity using methoxysuccinyl Ala-Ala-Pro-Phe p-nitroanilide.
Human leukocyte cathepsin G (1.48 μM was incubated with inhibitor 5A (1.48 μM in 0.1M HEPES buffer, pH 7.5, and 1% DMSO. Aliquots were withdrawn at different time intervals and assayed for enzymatic activity using methoxysuccinyl Ala-Ala-Pro-Phe p-nitroanilide.
as §1
(§4) Human leukocyte cathepsin G was obtained from Athens Research and Technology, Athens, Ga. Methoxysuccinyl Ala-Ala-Pro-Val p-nitroanilide and methoxysuccinyl Ala-Ala-Pro-Phe p-nitroanilide were purchased from Sigma Chemicals Co., St. Louis, Mo. Baker-analyzed 60-200 mesh silica gel was used for flash chromatography.

[7] = target: T3, human leukocyte elastase (HLE) (Homo sapiens, UniProt P08246); assay: Inactivation of human leukocyte elastase (kobs/[I]); format: biochemical; conditions: for HLE % inhibition: Table 1B footnote, [I]/[E] ratio of 200, 10 minute incubation period
T3 construct: purchased Elastin Products Co., Owensville, Mo
T3 sequence (P08246 30-247 limits assumed): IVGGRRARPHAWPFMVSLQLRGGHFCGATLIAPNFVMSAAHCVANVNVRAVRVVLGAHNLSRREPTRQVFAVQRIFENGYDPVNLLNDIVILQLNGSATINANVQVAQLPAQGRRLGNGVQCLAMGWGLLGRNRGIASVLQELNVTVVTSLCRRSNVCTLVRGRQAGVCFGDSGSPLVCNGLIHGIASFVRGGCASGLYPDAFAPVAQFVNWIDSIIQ
Text: as §1
XII. Materials: Human leukocyte elastase was purchased from Elastin Products Co., Owensville, Mo.
as §4

[8] = no inflammation, per animal, 8 mg/kg
[9] = peripheral blood neutrophils, per animal, 8 mg/kg

% Proteinase-3 Inhibition [1]: 55%
SMILES: CN1C(Cc2ccccc2)C(=O)N(CF)S1(=O)=O (stereo not drawn) [drawing 93 R = methyl]

SMILES: CC(=O)Oc1ccccc1C(=O)OCN1C(=O)c2ccccc2S1(=O)=O [Drug A]
overt signs of toxicity ([2]; rat, 8 mg/kg twice daily i.v. for three days): no overt signs of toxicity | morphology of circulating cells (in words) [3]: most of the circulating cells are morphologically mature | Peripheral Blood Cell Distribution, Lymphocytes [3, 8]: 10% and 17% | Peripheral Blood Cell Distribution, Neutrophils [3, 8]: 90% and 83% | effect on number of neutrophils in peripheral circulation (in words) ([3]; no inflammation, vs vehicle): caused an increase in the number of neutrophils into the peripheral circulation | Total Number of Cells Lavaged at 4 Hours, Lymphocytes ([4]; Experiment 1): 7.0 × 10^6 | Total Number of Cells Lavaged at 4 Hours, Macrophages Monocytes ([4]; Experiment 1): 7.6 × 10^6 | Total Number of Cells Lavaged at 4 Hours, Neutrophils ([4]; Experiment 1): 11.0 × 10^6 | Total Number of Cells Lavaged at 4 Hours, Total Cells ([4]; Experiment 1): 25 × 10^6 | Abdominal Lavage Cell Distribution, Lymphocytes ([4]; Experiment 1): 28% | Abdominal Lavage Cell Distribution, Macrophages Monocytes ([4]; Experiment 1): 38% | Abdominal Lavage Cell Distribution, Neutrophils ([4]; Experiment 1): 44% | reduction of peritonitis induced neutrophil diapedesis ([4]; rat): more than 50% | Elastase Activity [5, 9]: 0.55 ΔOD/min/ml and 0.70 ΔOD/min/ml | Elastase Activity Rate/10^6 PMN [5, 9]: 0.014 and 0.015 | entry into neutrophils in vivo (in words) [5]: do not enter neutrophils in vivo | inactivation of neutrophil intracellular proteinase (in words) [5]: fails to inactivate neutrophil intracellular proteinase | PMN ([5]; per animal, 8 mg/kg): 41.4 × 10^6 and 45.7 × 10^6 | Total WBC ([5]; per animal, 8 mg/kg): 46.0 × 10^6 and 55.0 × 10^6 | effect on elastase activity in circulating neutrophils (in words) ([5]; vs vehicle): did not reduce elastase activity in circulating neutrophils

Proteinase-3 Inhibition (in words) [1]: inactive
SMILES: O=C1C(Cc2ccccc2)CS(=O)(=O)N1CF (stereo not drawn) [drawing 96]

% Proteinase-3 Inhibition [1]: 66%
SMILES: O=C(CSc1ccccc1)OCN1C(=O)c2ccccc2S1(=O)=O

% Proteinase-3 Inhibition [1]: 84%
SMILES: CC(C)CC1C(=O)N(CS(=O)(=O)c2ccccc2)S(=O)(=O)N1C (stereo not drawn) [drawing 92 R = methyl]

% Proteinase-3 Inhibition [1]: 43%
SMILES: O=C1C(Cc2ccccc2)N(Cc2ccccc2)S(=O)(=O)N1CF (stereo not drawn) [drawing 93 R = benzyl]

% Proteinase-3 Inhibition [1]: 86%
SMILES: CC(C)CC1C(=O)N(CS(=O)(=O)c2ccccc2)S(=O)(=O)N1Cc1ccccc1 (stereo not drawn) [drawing 92 R = benzyl]

SMILES: CC(C)(C)OC(=O)CN1[C@@H](Cc2ccccc2)C(=O)N(CF)S1(=O)=O [Compound 4A, (S)-4-Benzyl-5(tert-butoxycarbonylmethyl)-2-fluoromethyl-3-oxo-1,2,5-thiadiazolidine 1.1-dioxide]
Total Number of Cells Lavaged at 4 Hours, Lymphocytes ([4]; Experiment 2): 6.5 × 10^6 | Total Number of Cells Lavaged at 4 Hours, Macrophages Monocytes ([4]; Experiment 2): 6.5 × 10^6 | Total Number of Cells Lavaged at 4 Hours, Neutrophils ([4]; Experiment 2): 41.0 × 10^6 | Total Number of Cells Lavaged at 4 Hours, Total Cells ([4]; Experiment 2): 54 × 10^6 | Abdominal Lavage Cell Distribution, Lymphocytes ([4]; Experiment 2): 12% | Abdominal Lavage Cell Distribution, Macrophages Monocytes ([4]; Experiment 2): 12% | Abdominal Lavage Cell Distribution, Neutrophils ([4]; Experiment 2): 76% | effect on neutrophil diapedesis (in words) ([4]; rat): did not inhibit neutrophil diapedesis associated with peritonitis | inhibition of Cath G (in words) [6]: an inhibitor of Cath G | kinact/KI ([7]; Table 2): 490 M⁻¹ s⁻¹

SMILES: CC(C)C[C@H]1C(=O)N(CS(=O)(=O)c2ccccc2)S(=O)(=O)N1C [Compound 3E]
toxicity (in words) ([2]; rat peritonitis test, 8 mg/kg i.v. single dose): non-toxic | Total Number of Cells Lavaged at 4 Hours, Lymphocytes ([4]; Experiment 2): 6.4 × 10^6 | Total Number of Cells Lavaged at 4 Hours, Macrophages Monocytes ([4]; Experiment 2): 7.7 × 10^6 | Total Number of Cells Lavaged at 4 Hours, Neutrophils ([4]; Experiment 2): 17.9 × 10^6 | Total Number of Cells Lavaged at 4 Hours, Total Cells ([4]; Experiment 2): 32 × 10^6 | Abdominal Lavage Cell Distribution, Lymphocytes ([4]; Experiment 2): 20% | Abdominal Lavage Cell Distribution, Macrophages Monocytes ([4]; Experiment 2): 24% | Abdominal Lavage Cell Distribution, Neutrophils ([4]; Experiment 2): 56% | effect on neutrophil diapedesis (in words) ([4]; rat): substantially reduced neutrophil diapedesis | inhibition of elastase (in words) [7]: an elastase inhibitor | kinact/KI ([7]; Table 6): 7580 M⁻¹ s⁻¹

% Proteinase-3 Inhibition [1]: 33%
SMILES: CC(C)(C)OC(=O)CN1[C@@H](Cc2ccccc2)C(=O)N(CF)S1(=O)=O [drawing 93 R = CH2 COOt-BOC]

kinact/KI ([6]; Table 1B): 960 M⁻¹ s⁻¹ | HLE % inhibition [7]: 12%
SMILES: O=C1C(Cc2ccccc2)CS(=O)(=O)N1CS(=O)(=O)c1ccccc1 (stereo not drawn) [Compound 10, 4-Benzyl-2-(1-phenylsulfonylmethyl)isothiazolidin-3-one 1,1-dioxide]
time-dependent loss of serine protease activity ([6]; FIG. 5, Cath G 1.33 uM, inhibitor 13.3 uM, 0.1M HEPES pH 7.5, 10% DMSO): time-dependent loss of serine protease activity

kinact/KI ([6]; Table 3): 360 M⁻¹ s⁻¹ | kinact/KI ([7]; Table 3): 520 M⁻¹ s⁻¹
SMILES: O=C(OCN1C(=O)C(Cc2ccccc2)CS1(=O)=O)[C@H]1CCCN1C(=O)OCc1ccccc1 (stereo partly drawn) [Compound 7B]

kinact/KI ([6]; Table 1A): 290 M⁻¹ s⁻¹ | kinact/KI ([7]; Table 1A): 210 M⁻¹ s⁻¹
SMILES: CC(C(=O)OCN1C(=O)C(Cc2ccccc2)CS1(=O)=O)c1cccc(C(=O)c2ccccc2)c1 (stereo not drawn) [Compound 3]

SMILES: O=C1c2ccccc2S(=O)(=O)N1CF [drawing 94]
% Proteinase-3 Inhibition [1]: 79%

kinact/KI ([6]; Table 3): 2770 M⁻¹ s⁻¹ | kinact/KI ([7]; Table 3): 50 M⁻¹ s⁻¹
SMILES: C[C@H](NC(=O)OCc1ccccc1)C(=O)OCN1C(=O)C(Cc2ccccc2)CS1(=O)=O (stereo partly drawn) [Compound 8B]

kinact/KI ([6]; Table 1B): 340 M⁻¹ s⁻¹ | HLE % inhibition [7]: 20%
SMILES: C=C(N1C(=O)C(Cc2ccccc2)CS1(=O)=O)S(=O)(=O)c1ccccc1 (stereo not drawn) [Compound 9, 4-Benzyl-2-(1-phenylsulfonylvinyl)isothiazolidin-3-one 1,1-dioxide]
